This note sets out measurements from patent US9028845B2, “Chimeric immunomodulatory compounds and methods of using the same-IV” (Dynavax Technologies Corporation, priority 2001, dated 2015).

“Also recorded” adds a separate entry of the source.

For assay [1], the system named is human PBMCs. Put plainly: Human PBMC cytokine response assay (IFN-γ and IFN-α in cell-free medium by ELISA), with or without cPLGA.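 As to IFN-α (pg/ml) mean: 20 µg/mL compound for 24 hours.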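 As to IFN-γ (pg/ml) mean: 20 µg/mL compound for 24 hours.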 It counts as cell-based. A general note: ELISA stands for enzyme-linked immunosorbent assay.
Assay [2] relates to CD19+ B cells. Put plainly: Human B cell proliferation assay (3H-thymidine incorporation). Background: Dividing cells build labelled thymidine or BrdU into new DNA.
Where [3] appears, read: donor 28066, 20 ug/ml, 24 h, + PLGA = premixed with 100 μg/ml cPLGA.
The mark [4] stands for this setting: donor 28067, 20 ug/ml, 24 h, + PLGA = premixed with 100 μg/ml cPLGA.
The mark [5] stands for this setting: donor 28068, 20 ug/ml, 24 h, + PLGA = premixed with 100 μg/ml cPLGA.
[6] abbreviates: mean of donors 28065-28068, 20 ug/ml, 24 h, + PLGA = premixed with 100 μg/ml cPLGA.
[7] abbreviates: B cells, donor 121, 2 μg/ml, Experiment B.
Where [8] appears, read: B cells, donor 194, 2 μg/ml, Experiment B.
[9] abbreviates: Table 24, mean of donors 28234-28237.
The mark [10] stands for this setting: mean of donors 28185-28188, Table 15.

In assay [1] (Table 10, donor 28042), “5′-ACGTTCG-3′-HEG-5′-ACGTTCG-3′-HEG-5′-AGATGAT-3′ [Compound C-24]” gave an IFN-α of 0 pg/mL and an IFN-γ of 148 pg/mL. In assay [1] (Table 10, donor 28043), this substance displayed an IFN-α of 0 pg/mL and an IFN-γ of 156 pg/mL. In assay [1] (Table 10, donor 28044), this substance displayed an IFN-α of 8 pg/mL and an IFN-γ of 312 pg/mL. In assay [1] (Table 10, donor 28045), this substance showed an IFN-α of 0 pg/mL and an IFN-γ of 26 pg/mL. Moreover, in assay [1] (Table 10, mean of donors), the IFN-α mean amounted to 2 pg/mL and the IFN-γ mean was 161 pg/mL. Also, the “IFN-γ (pg/ml) 28065” value in assay [1] (donor 28065 (high background), 20 ug/ml, 24 h, + PLGA = premixed with 100 μg/ml cPLGA, 1000 = outside assay limits) was 337 pg/mL. In addition, in assay [1] (donor 28065, 20 ug/ml, 24 h, + PLGA = premixed with 100 μg/ml cPLGA), the “IFN-α (pg/ml) 28065” value came out at 28 pg/mL. Further, in assay [1] (setting [3]), the “IFN-α (pg/ml) 28066” value came to 0 pg/mL and the “IFN-γ (pg/ml) 28066” value was 2 pg/mL. Also, in assay [1] (setting [4]), the “IFN-α (pg/ml) 28067” value was determined as 8 pg/mL and the “IFN-γ (pg/ml) 28067” value came to 4 pg/mL. In assay [1] (setting [5]), the “IFN-α (pg/ml) 28068” value was 67 pg/mL and the “IFN-γ (pg/ml) 28068” value worked out at 116 pg/mL. Also, in assay [1] (setting [6]), the “IFN-α (pg/ml) mean” value amounted to 26 pg/mL and the “IFN-γ (pg/ml) mean” value turned out to be 115 pg/mL. Also, in assay [2] (setting [7]), the cpm1 came out at 8206 cpm, the cpm2 is on record as 6789 cpm and the cpm3 was 2799 cpm. In assay [2] (B cells, donor 121 mean, 2 μg/ml, Experiment B), this substance displayed a mean cpm of 5931 cpm. In assay [2] (setting [8]), this substance showed a cpm1 of 3979 cpm, a cpm2 of 3407 cpm and a cpm3 of 3468 cpm. The mean cpm in assay [2] (B cells, donor 194 mean, 2 μg/ml, Experiment B) was found to be 3618 cpm. Further, the mean of both in assay [2] (B cells, mean of donors 121 and 194, 2 μg/ml, Experiment B) is listed as 4775 cpm.
With “5′-TCGATTT-3′-HEG-5′-TCGATTT-3′-HEG-5′-TCGATTT-3′ [Compound C-74]”, the “B cell proliferation (FIG. 11), in words” value in assay [2] (purified human B cells, 5 μg/ml, 96 h) is “induced moderate levels of B cell proliferation”.
For the substance “(5′-TCGTCGA-3′-HEG)2-glycerol-HEG-5′-AACGTTC-3′-HEG-5′-TCGA-3′ [Compound C-97]”, the IFN-α worked out at 16 pg/mL in assay [1] (Table 24, donor 28234); 16 pg/mL in assay [1] (Table 24, donor 28235); 140 pg/mL in assay [1] (Table 24, donor 28236); 16 pg/mL in assay [1] (Table 24, donor 28237). Also, the IFN-γ is 10 pg/mL in assay [1] (Table 24, donor 28234); 119 pg/mL in assay [1] (Table 24, donor 28235); 269 pg/mL in assay [1] (Table 24, donor 28236); 980 pg/mL in assay [1] (Table 24, donor 28237). In assay [1] (setting [9]), this substance showed an IFN-α mean of 47 pg/mL. In addition, in assay [1] (setting [9]), the IFN-γ mean was 345 pg/mL. The “IFN-a” value in assay [1] (donor 28185, Table 15) amounted to 307 pg/mL; in assay [1] (donor 28186, Table 15) it was 71 pg/mL; in assay [1] (donor 28187, Table 15), 4 pg/mL; in assay [1] (donor 28188, Table 15), 2 pg/mL. The “IFN-g” value in assay [1] (donor 28185, Table 15) came out at 259 pg/mL; in assay [1] (donor 28186, Table 15), 16 pg/mL; in assay [1] (donor 28187, Table 15), 125 pg/mL; in assay [1] (donor 28188, Table 15), 5 pg/mL. Further, the “IFN-a (pg/ml) mean” value in assay [1] (setting [10]) amounted to 96 pg/mL. The “IFN-g (pg/ml) mean” value in assay [1] (setting [10]) was 101 pg/mL. For the same substance, in assay [1] (mean ×2, Table 15), the “IFN-a (pg/ml) ×2” value was found to be 192 pg/mL. Also, the “IFN-g (pg/ml) ×4” value in assay [1] (mean ×4, Table 15) stood at 405 pg/mL. In addition, the “IFN-α induction, in words” value in assay [1] (used alone) is “reduction of IFN-α induction”.
Turning to “(5′-TCGTCGA-3′-HEG)2-glycerol-HEG-5′-AACGTTC-3′-HEG-5′-TCGACGT-3′ [Compound C-100]”, the IFN-α in assay [1] (Table 24, donor 28234) was 16 pg/mL; in assay [1] (Table 24, donor 28235), 16 pg/mL; in assay [1] (Table 24, donor 28236) it was 398 pg/mL; in assay [1] (Table 24, donor 28237), 193 pg/mL. The IFN-γ in assay [1] (Table 24, donor 28234) came to 27 pg/mL; in assay [1] (Table 24, donor 28235), 183 pg/mL; in assay [1] (Table 24, donor 28236), 490 pg/mL; in assay [1] (Table 24, donor 28237), 1907 pg/mL. The IFN-α mean in assay [1] (setting [9]) was 156 pg/mL. The substance also registered an IFN-γ mean in assay [1] (setting [9]) of 652 pg/mL.
“(5′-TCGTCGA-3′-HEG)2-glycerol-HEG-5′-TCGTCGA-3′ (phosphodiester) [Compound C-93]”: the IFN-α in assay [1] (Table 9, donor 28089) is 0 pg/mL; in assay [1] (Table 9, donor 28090), 30 pg/mL; in assay [1] (Table 9, donor 28098), 25 pg/mL; in assay [1] (Table 9, donor 28099), 29 pg/mL; in assay [1] (Table 11, donor 28042), 7 pg/mL; in assay [1] (Table 11, donor 28043) it was 3 pg/mL. Moreover, the IFN-α in assay [1] (Table 11, donor 28044) was determined as 81 pg/mL; in assay [1] (Table 11, donor 28045), 61 pg/mL. The IFN-γ amounted to 0 pg/mL in assay [1] (Table 9, donor 28089); 0 pg/mL in assay [1] (Table 9, donor 28090); 0 pg/mL in assay [1] (Table 9, donor 28098); 3 pg/mL in assay [1] (Table 9, donor 28099); 8 pg/mL in assay [1] (Table 11, donor 28042); 1 pg/mL in assay [1] (Table 11, donor 28043). In addition, the IFN-γ is 41 pg/mL in assay [1] (Table 11, donor 28044) and 17 pg/mL in assay [1] (Table 11, donor 28045). For the same substance, the IFN-α mean stood at 21 pg/mL in assay [1] (Table 9, mean of donors) and 38 pg/mL in assay [1] (Table 11, mean of donors). For the same substance, the IFN-γ mean in assay [1] (Table 9, mean of donors) came to 1 pg/mL; in assay [1] (Table 11, mean of donors), 17 pg/mL. Moreover, the “activity when formulated with cPLGA, in words” value in assay [1] (formulated with cPLGA) is given as “significantly more active when formulated with cPLGA; also recorded: active only when formulated”. Also, in assay [1] (used alone (no cPLGA)), the “immunomodulatory activity (IFN-γ / IFN-α secretion), in words” value is “inactive as CICs alone”.
